Key:
HIV protease = settings: 2006, cited from earlier work; for effect of I47A mutation on susceptibility: de Mendoza et al.; for effect of L33F mutation in protease on susceptibility: Kozal et al.
HIV-1 = assay: Resistance test vector (PHENOSENSE) phenotypic susceptibility assay, fold change in IC50, correlated with genotype (Fisher's Exact test, odds ratio); format: cell-based, human immunodeficiency virus type 1; settings: 2862 clinical samples; FC relative to wild-type (NL4-3); FIG. 1
Source text: See Petropoulos et al., 2000, Antimicrob. Agents Chemother. 44:920-928; U.S. Pat. Nos. 5,837,464 and 6,242,187. PHENOSENSE™ is a phenotypic assay that achieves the benefits of phenotypic testing and overcomes the drawbacks of previous assays.
PHENOSENSE™ can obtain results with only one round of viral replication, thereby avoiding selection of subpopulations of virus that can occur during preparation of viral stocks required for assays that rely on fully infectious virus.
A resistance test vector (“RTV”) can then be constructed by incorporating the amplified viral gene sequences into a replication defective viral vector by using any method known in the art of incorporating gene sequences into a vector. In one embodiment, restrictions enzymes and conventional cloning methods are used. See Sambrook et al., 2001, Molecular Cloning: A Laboratory Manual, Cold Spring Harbor Laboratory, 3rd ed., NY; and Ausubel et al., 1989, Current Protocols in Molecular Biology, Greene Publishing Associates and Wiley Interscience, NY. In a preferred embodiment, ApaI and PinAI restriction enzymes are used. Preferably, the replication defective viral vector is the indicator gene viral vector (“IGVV”). In a preferred embodiment, the viral vector contains a means for detecting replication of the RTV. Preferably, the viral vector contains a luciferase expression cassette.
The assay can be performed by first co-transfecting host cells with RTV DNA and a plasmid that expresses the envelope proteins of another retrovirus, for example, amphotropic murine leukemia virus (MLV). Following transfection, viral particles can be harvested from the cell culture and used to infect fresh target cells in the presence of varying amounts of anti-viral drug(s). The completion of a single round of viral replication in the fresh target cells can be detected by the means for detecting replication contained in the vector. In a preferred embodiment, the completion of a single round of viral replication results in the production of luciferase. By monitoring the amount of, e.g., luciferase activity in the presence of the varying amounts of antiviral drug(s), a resistance curve can be constructed by plotting luciferase activity versus drug concentration. The susceptibility of an HIV, or population of HIV, can be determined by measuring the concentration of antiviral drug at which the luciferase activity detected is half-maximal. This number, the IC50, provides a standard and convenient measure of drug resistance.
Patient derived segment(s) corresponding to the HIV protease and reverse transcriptase coding regions were amplified by the reverse transcription polymerase chain reaction method (RT PCR) using viral RNA isolated from viral particles present in the plasma or serum of HIV infected individuals as follows. Viral RNA was isolated from the plasma or serum using oligo-dT magnetic beads (Dynal Biotech, Oslo, Norway), followed by washing and elution of viral RNA. The RT PCR protocol was divided into two steps. A retroviral reverse transcriptase (e.g. Moloney MuLV reverse transcriptase (Roche Molecular Systems, Inc., Branchburg, N.J.; Invitrogen, Carlsbad, Calif.), or avian myeloblastosis virus (AMV) reverse transcriptase, (Boehringer Mannheim, Indianapolis, Ind.) was used to copy viral RNA into cDNA. The cDNA was then amplified using a thermostable DNA polymerase (e.g. Taq (Roche Molecular Systems, Inc., Branchburg, N.J.), Tth (Roche Molecular Systems, Inc., Branchburg, N.J.), PRIMEZYME™ (isolated from Thermus brockianus, Biometra, Gottingen, Germany)) or a combination of thermostable polymerases as described for the performance of “long PCR” (Barnes, W.M., 1994, Proc. Natl. Acad. Sci, USA 91, 2216 20) (e.g. Expand High Fidelity PCR System (Taq+Pwo), (Boehringer Mannheim. Indianapolis, Ind.); GENEAMP XL™ PCR kit (Tth+Vent), (Roche Molecular Systems, Inc., Branchburg, N.J.); or […] II®, Clontech, Palo Alto, Calif.)

Row | SMILES | effect of I47A mutation on susceptibility (HIV protease) | effect of L33F mutation in protease on susceptibility (HIV protease) | correlation of FC in susceptibility with the FC in susceptibility for DRV (HIV-1)
1 | Cc1cccc(C)c1OCC(=O)N[C@@H](Cc1ccccc1)[C@@H](O)C[C@H](Cc1ccccc1)NC(=O)[C@H](C(C)C)N1CCCNC1=O [LPV, lopinavir] | reduced susceptibility | correlate with resistance | no correlation
2 | COC(=O)N[C@H](C(=O)N[C@@H](Cc1ccccc1)[C@@H](O)CN(Cc1ccc(-c2ccccn2)cc1)NC(=O)[C@@H](NC(=O)OC)C(C)(C)C)C(C)(C)C [ATV, atazanavir] |  |  | no correlation
3 | CC(C)c1nc(CN(C)C(=O)N[C@H](C(=O)N[C@@H](Cc2ccccc2)C[C@H](O)[C@H](Cc2ccccc2)NC(=O)OCc2cncs2)C(C)C)cs1 [ritonavir] |  | correlate with resistance | 
4 | CC(C)(C)NC(=O)[C@@H]1C[C@@H]2CCCC[C@@H]2CN1C[C@@H](O)[C@H](Cc1ccccc1)NC(=O)[C@H](CC(N)=O)NC(=O)c1ccc2ccccc2n1 [saquinavir] | hypersusceptibility | correlate with resistance | 
